Laboratory results as given in patent US20180271960A1, “METHOD TO TREAT CANCER USING ARGININE DELPETOR AND ORNITHINE DECARBOXYLASE (ODC) INHIBITOR” (Bio-Cancer Treatment International Ltd., priority 2015, published 2018).

Experiments:
Format in all cases: in vivo, mouse
[1] = test system: SU-DHL-10 B cell lymphoma xenograft; experiment: SU-DHL-10 B cell lymphoma xenograft model; details: SU-DHL-10 xenograft; PEG-BCT-100 20 mg/kg IV twice a week; DFMO 2% w/v in drinking water
Description: In one example embodiment, SU-DHL-10 human lymphoma cells are maintained in vitro culture in RPMI1640 medium supplemented with 20% fetal bovine serum at 37° C. in an atmosphere of 5% CO2 in air. The tumour cells are routinely sub-cultured twice weekly. The cells in an exponential growth phase are harvested and counted for tumour inoculation.
(§1) One day before tumour inoculation, all mice are sub-lethally irradiated with 60Co (200 rad). Each mouse is inoculated subcutaneously at the right flank region with SU-DHL-10 tumour cells (1×10^7) in 0.1 ml of PBS/Matrigel (1:1) for tumour development. The treatments start when the mean tumour volume reached 116 mm^3. The date of tumour cell inoculation is denoted as day 0.
(§2) Four treatment groups of animals, with eight animals in each group, are tested. Control group (negative control) receives physiological saline, 20 mg/kg of PEG-BCT-100 alone, 2% w/v DFMO in drinking water, and combination of 20 mg/kg of PEG-BCT-100 and 2% w/v DFMO. PEG-BCT-100 is administered intravenously, twice a week, until euthanization while DFMO is supplied in drinking water at 2% w/v.

[2] = test system: SU-DHL-6 B cell lymphoma xenograft; experiment: SU-DHL-6 B cell lymphoma xenograft model; details: SU-DHL-6 xenograft; PEG-BCT-100 20 mg/kg IV twice a week; DFMO 2% w/v in drinking water
Description: (§3) In one example embodiment, the SU-DHL-6 human lymphoma cells are maintained in vitro as a suspension culture in RPMI1640 medium supplemented with 10% heat inactivated fetal bovine serum at 37° C. in an atmosphere of 5% CO2 in air. The tumour cells are routinely sub-cultured twice weekly. The cells growing in an exponential growth phase are harvested and counted for tumour inoculation.
as §1, with “SU-DHL-6” for “SU-DHL-10”, “(5×10^6)” for “(1×10^7)”, “size reaches 125” for “volume reached 116”
as §2, with “Four groups of” for “Four treatment groups of”, “physiological saline, and the three treatment groups respectively receive 20 mg/kg” for “physiological saline, 20 mg/kg”, “water, and a combination of” for “water, and combination of”

[3] = test system: MIA-PaCa-2 pancreatic cancer xenograft; experiment: MIA-PaCa-2 pancreatic cancer xenograft model; details: MIA-PaCa-2 xenograft; PEG-BCT-100 20 mg/kg IV twice a week; DFMO 2% w/v in drinking water
Description: as §3, with “MIA-PaCa-2 tumour” for “SU-DHL-6 human lymphoma”, “vitro” for “vitro as a suspension”, “EMEM” for “RPMI1640”
Each mouse is inoculated subcutaneously at the right flank region with MIA-PaCa-2 tumour cells (5×10^6) in 0.1 ml of PBS (1:1 Matrigel) for tumour development. The treatments start when the mean tumour size reaches 124 mm^3. The date of tumour cell inoculation was denoted as day 0.
as §2, with “saline, and the three treatment groups respectively receive” for “saline,”

[4] = test system: Hep 3B hepatocellular carcinoma xenograft; experiment: Hep 3B hepatocellular carcinoma xenograft model; details: Hep 3B xenograft; PEG-BCT-100 20 mg/kg IV twice a week; DFMO 2% w/v in drinking water
Description: as §3, with “Hep 3B tumour” for “SU-DHL-6 human lymphoma”, “vitro” for “vitro as a suspension”, “EMEM” for “RPMI1640”
Each mouse is inoculated subcutaneously at the right flank region with Hep 3B tumour cells (5×10^6) in 0.1 ml of PBS (1:1 Matrigel) for tumour development. The treatments start when the mean tumour size reaches 119 mm^3. The date of tumour cell inoculation is denoted as day 0.
as §2, with “saline, and the three treatment groups respectively receive” for “saline,”

[5] = test system: Kasumi-1 leukemia xenograft; experiment: Kasumi-1 leukemia xenograft model; details: Kasumi-1 xenograft; for anti-tumour effect: PEG-BCT-100 20 mg/kg IV twice a week, DFMO 2% w/v in drinking water
Description: as §3, with “Kasumi-1 tumour” for “SU-DHL-6 human lymphoma”
All mice are γ-irradiated (200 rad) for 24 h before tumour cell injection. Kasumi-1 tumour cells (1×10^7) in 0.2 ml of PBS are mixed with cultrex in a 1:1 ratio. Each mouse is inoculated subcutaneously at the right flank region with the tumour cells suspension for tumour development. The treatments start when the mean tumour size reached 114 mm^3. The date of tumour cell inoculation is denoted as day 0.
as §2, with “saline, and the three treatment groups respectively receive” for “saline,”

Molecule: NCCC[C@](N)(C(=O)O)C(F)F [DFMO, α-difluoromethylornithine, reference compound]
- anti-tumour effect [1]: no significant anti-tumour effect
- anti-tumour effect [2]: do not produce a significant anti-tumour effect
- anti-tumour effect [3]: significant anti-tumour effect
- anti-tumour effect [4]: significant anti-tumour effect
- TGI ([5]; 2% DFMO in drinking water): 45%
- anti-tumour effect [5]: significant anti-tumour activity

B1: PEG-BCT-100: pegylated recombinant human arginase I (SEQ ID NO.1, or SEQ ID NO.3 with six histidines), about 6-12 PEG molecules per arginase (protein, UniProt P05089 1-322, looked up)
Arginase-1: MSAKSRTIGIIGAPFSKGQPRGGVEEGPTVLRKAGLLEKLKEQECDVKDYGDLPFADIPNDSPFQIVKNPRSVGKASEQLAGKVAEVKKNGRISLVLGGDHSLAIGSISGHARVHPDLGVIWVDAHTDINTPLTTTSGNLHGQPVSFLLKELKGKIPDVPGFSWVTPCISAKDIVYIGLRDVDPGEHYILKTLGIKYFSMTEVDRLGIGKVMEETLSYLLGRKKRPIHLSFDVDGLDPSFTPATGTPVVGGLTYREGLYITEEIYKTGLLSGLDIMEVNPSLGKTPEEVTRTVNTAVAITLACFGLAREGNHKPIDYLNPPK
modifications: PEG, about 6-12 per arginase; optional His6 tag
- anti-tumour effect [1]: slightly promotes SU-DHL-10 tumour growth
- anti-tumour effect [2]: do not produce a significant anti-tumour effect
- anti-tumour effect [3]: do not produce a significant anti-tumour effect
- anti-tumour effect [4]: does not produce a significant anti-tumour effect
- anti-tumour effect [5]: no significant anti-tumour effect
